The target of data set [1] is T1, Spike RBD/ACE2 (19–615) interaction (Severe acute respiratory syndrome coronavirus 2, UniProt P0DTC2).
T1 construct: S protein RBD (aa residues 319–541) of SARS-CoV-2; expressed in transfected cells; host or cells: HEK293T
Description: cell-based. The data set is classed as cell-based, SARS-CoV-2.

The subject of a further data set is SARS-CoV-2 pseudovirus. The experiment in a line: microbe, parasite or virus in culture. The data set is classed as cell-based. Particulars: Severe acute respiratory syndrome-related coronavirus, SH-SY5Y, read-out: IC50, inhibition of pseudovirus cell entry.
The subject of data set [2] is SARS-CoV-2. Description: microbe, parasite or virus in culture. The data set is classed as cell-based.
Data set [3] deals with SARS-CoV-2. Type of data set: cell-based.
In the next data set the test system is E. coli WP2 uvrA strain. The experiment in a line: Microbial mutagenicity assay (Ames test). Particulars: positive control.
Where [4] appears, read: HEK-293T, 48 h, read-out: suppression of Spike RBD/ACE2 (19–615) interaction.

The IC50 is the midpoint of a concentration-inhibition curve. By melting point is commonly meant the temperature of the solid-liquid transition.

The structures appear in SMILES notation.

Consider `O=C(O)c1ccc2c(c1)C(=O)N(c1ccc(-c3nnc(-c4ccccc4)o3)cc1)C2=O` [compound 5733393, 1,3-dioxo-2-[4-(5-phenyl-1,3,4-oxadiazol-2-yl)phenyl]-5-isoindolinecarboxylic acid], for which the “effect on Spike RBD/ACE2 (19–615) interaction” value (“effect on Spike RBD/ACE2” below) in data set [1] is “suppressed the interaction”. As for `O=c1c(Oc2ccc(-c3ccccc3)cc2)coc2cc(O)ccc12` [compound 6659989, 3-(4-biphenylyloxy)-7-hydroxy-4H-chromen-4-one], the IC50 in the data set with SARS-CoV-2 pseudovirus is 3.2 ± 0.2 µM. Further, in data set [1], the “concentration-dependent suppression of Spike RBD/ACE2 (19–615) interaction” value was “suppressed Spike RBD/ACE2 (19–615) interaction in a concentration-dependent manner” and the “effect on Spike RBD/ACE2” value is “suppressed the interaction”. The molecule `COc1cccc2c1ncn2Cc1ccc2cccnc2c1` [CKP-44, 7-((4-Methoxy-1H-benzo[d]imidazol-1-yl)methyl)quinoline] showed a melting point of 161 to 162 °C. Besides, in data set [1], the “activity on Spike RBD/ACE2 (19–615) interaction (in words)” value (from here on “activity on Spike RBD/ACE2”) is given as “did not exhibit any effect”. In the case of `c1ccc(-c2ccc(Cn3cnc4ccccc43)cc2)cc1` [CKP-23, 1-([1,1′-Biphenyl]-4-ylmethyl)-1H-benzo[d]imidazole], the melting point was 184 to 186 °C.

`Oc1cccc2c1ncn2Cc1ccc2ccccc2c1` [CKP-26, 1-(Naphthalen-2-ylmethyl)-1H-benzo[d]imidazol-4-ol]: the “activity on Spike RBD/ACE2” value in data set [1] was “none of the 4-hydroxy congeners of 28 and 29, compounds 31 (CKP-26) and 32 (CKP-30) maintained inhibitory activity”. As for `O=C(O)c1ccccc1C(=O)Nc1ccc(Oc2ccc3ccccc3c2)cc1` [compound 6052953, 2-({[4-(2-naphthyloxy)phenyl]amino}carbonyl)benzoic acid], in data set [1], the “concentration-dependent suppression of Spike RBD/ACE2 (19–615) interaction” value was “suppressed Spike RBD/ACE2 (19–615) interaction in a concentration-dependent manner” and the “effect on Spike RBD/ACE2” value is given as “suppressed the interaction”.

`COc1cccc2c1[n+](C/C=C/c1ccc([N+](=O)[O-])cc1)cn2Cc1ccc(-c2ccccc2)cc1.[Br-]` [CKP-40, (E)-1-([1,1′-Biphenyl]-4-ylmethyl)-4-methoxy-3-(3-(4-nitrophenyl)allyl)-1H-benzo[d]imidazol-3-ium Bromide] returned a melting point of 203 to 204 °C. Besides, the “effect on the cytopathic effect of SARS-CoV-2 (in words)” value (from here on “effect on the cytopathic effect”) with SARS-CoV-2 [2] is listed as “not protective against SARS-CoV-2”. Also, the “activity on Spike RBD/ACE2” value in data set [1] is recorded as “active”. In data set [1] (setting [4]), the inhibition at 25 µM worked out at 14%.

`O=C(C=Cc1ccc(NC(=O)c2ccccc2-c2ccccc2C(=O)O)cc1)c1ccccc1` [compound 5755483, 2'-({[4-(3-oxo-3-phenyl-1-propen-1-yl)phenyl]amino}carbonyl)-2-biphenylcarboxylic acid]: in data set [1], the “effect on Spike RBD/ACE2” value is reported as “suppressed the interaction”. Regarding `O=[N+]([O-])c1ccc(/C=C/C[n+]2cn(Cc3ccc(-c4ccccc4)cc3)c3ccccc32)cc1.[Br-]`, the melting point is 236 to 238 °C (dec.). With `Cc1ccc[n+](CC(=O)c2ccc3c(c2)Cc2ccccc2-3)c1C.[Br-]` [compound 5315079, 1-[2-(9H-fluoren-2-yl)-2-oxoethyl]-2,3-dimethylpyridinium bromide], in data set [1], the “concentration-dependent suppression of Spike RBD/ACE2 (19–615) interaction” value is reported as “suppressed Spike RBD/ACE2 (19–615) interaction in a concentration-dependent manner” and the “effect on Spike RBD/ACE2” value is “suppressed the interaction”.

In turn, `COc1cccc2c1[n+](C/C=C/c1ccc(Cl)cc1)cn2Cc1ccc2ccccc2c1.[Br-]` yielded a melting point of 228 to 229 °C.

Consider `O=[N+]([O-])c1cccc2c1ncn2Cc1ccc2cccnc2c1` [CKP-48, 7-((4-Nitro-1H-benzo[d]imidazol-1-yl)methyl)quinoline], for which the “activity on Spike RBD/ACE2” value in data set [1] is given as “showed activity”. Also, the inhibition at 50 µM in data set [1] (setting [4]) came to 36%. Regarding `O=[N+]([O-])c1cccc2c1ncn2Cc1ccc2ccccc2c1` [CKP-20, 1-(Naphthalen-2-ylmethyl)-4-nitro-1H-benzo[d]imidazole], in data set [1], the “activity on Spike RBD/ACE2” value was “showed activity”. Further, the inhibition at 50 µM in data set [1] (setting [4]) was determined as 51%. As for `O=C(c1ccc(-c2ccccc2)cc1)n1cnc2ccccc21` [compound 5260662, 1-(4-biphenylylcarbonyl)-1H-benzimidazole], in data set [1], the “concentration-dependent suppression of Spike RBD/ACE2 (19–615) interaction” value is on record as “suppressed Spike RBD/ACE2 (19–615) interaction in a concentration-dependent manner” and the “effect on Spike RBD/ACE2” value was “suppressed the interaction”.

Turning to `Nc1cccc2c1ncn2Cc1ccc2cccnc2c1` [CKP-49, 1-(Quinolin-7-ylmethyl)-1H-benzo[d]imidazol-4-amine], the “effect on viral load in the cell culture supernatant (in words)” value with SARS-CoV-2 [3] is given as “reduced the viral load”. For the same molecule, the “effect on the cytopathic effect” value with SARS-CoV-2 [2] was “consistently reduced the cytopathic effect”. In data set [1] (setting [4]), the inhibition at 50 µM came out at 30%. `Nc1nc(-c2ccccc2)c(-c2ccc(-c3ccccc3)cc2)s1` [compound 6954709, 5-(4-biphenylyl)-4-phenyl-1,3-thiazol-2-amine]: the “effect on Spike RBD/ACE2” value in data set [1] is “suppressed the interaction”. `COc1ccc(Cn2cnc3ccccc32)cc1OC` [CKP-24, 1-(3,4-Dimethoxybenzyl)-1H-benzo[d]imidazole]: the melting point lay in the range of 131 to 132 °C. Consider `c1ccc2cc(CCn3cnc4ccccc43)ccc2c1` [CKP-46, 1-(2-(Naphthalen-2-yl)ethyl)-1H-benzo[d]imidazole], for which the “activity on Spike RBD/ACE2” value in data set [1] was “activity was retained”. Moreover, the inhibition at 1 µM in data set [1] (setting [4]) worked out at 20%. As to `COc1ccc(Cn2c[n+](C/C=C/c3ccc([N+](=O)[O-])cc3)c3ccccc32)cc1OC.[Br-]`, the melting point was 146 to 148 °C (dec.).

In turn, `c1ccc2cc(Cn3cnc4ccccc43)ccc2c1` [CKP-22, 1-(Naphthalen-2-ylmethyl)-1H-benzo[d]imidazole] showed a melting point of 139 to 140 °C. The IC50 in the data set with SARS-CoV-2 pseudovirus was found to be 49 ± 2.5 µM. The “reduction of SARS-CoV-2 levels (viral load) in cell culture supernatant” value in the data set with SARS-CoV-2 [3] is 68%. Further, in the data set with SARS-CoV-2 [2], the “prevention of infection from the original SARS-CoV-2 in vitro” value is “strongly prevented infection” and the “reduction of the cytopathic effect (CPE) of the virus” value was “approximately 90%”. Also, in data set [1], the IC50 is 55 µM, the “concentration-dependent suppression of Spike RBD/ACE2 (19–615) interaction” value is on record as “suppressed Spike RBD/ACE2 (19–615) interaction in a concentration-dependent manner” and the “effect on Spike RBD/ACE2” value was “suppressed the interaction”. Also, the inhibition at 50 µM in data set [1] (setting [4]) was 81%.

Regarding `COc1ccc(-c2ccccc2)cc1NCc1ccc2c(c1)OCO2` [compound 5465521, (1,3-benzodioxol-5-ylmethyl)(4-methoxy-3-biphenylyl)amine], in data set [1], the “concentration-dependent suppression of Spike RBD/ACE2 (19–615) interaction” value is “suppressed Spike RBD/ACE2 (19–615) interaction in a concentration-dependent manner” and the “effect on Spike RBD/ACE2” value is “suppressed the interaction”.

For `c1cnc2cc(Cn3cnc4ccccc43)ccc2c1` [CKP-36, 7-((1H-Benzo[d]imidazol-1-yl)methyl)quinoline], the melting point was 166 to 168 °C (dec.). On the same count and under the same terms, as for `Oc1ccc(Cn2cnc3ccccc32)cc1O` [CKP-35, 4-((1H-Benzo[d]imidazol-1-yl)methyl)benzene-1,2-diol], the figure is 188 to 190 °C (dec.). As to `COc1cccc2c1[n+](C/C=C/c1ccc(Cl)cc1)cn2Cc1ccc(-c2ccccc2)cc1.[Br-]`, the melting point fell in the range of 205 to 206 °C.

For `O=C(c1ccc(NC(=O)C(c2ccccc2)c2ccccc2)cc1)c1ccc(C(=O)O)c(C(=O)O)c1` [compound 6048589, 4-{4-[(diphenylacetyl)amino]benzoyl}phthalic acid], the “effect on Spike RBD/ACE2” value in data set [1] is “suppressed the interaction”. In turn, `Nc1ccc2cc3ccccc3cc2c1` [2-aminoanthracene, reference compound] returned a mean revertants with E. coli WP2 uvrA strain (10 μg/plate, +S9) above 300. For the molecule `COc1cccc2c1[n+](C/C=C/c1ccc([N+](=O)[O-])cc1)cn2Cc1ccc2ccccc2c1.[Br-]` [CKP-42, (E)-4-Methoxy-1-(naphthalen-2-ylmethyl)-3-(3-(4-nitrophenyl)allyl)-1H-benzo[d]imidazol-3-ium Bromide], the melting point was 227 to 228 °C. Moreover, the “activity on Spike RBD/ACE2” value in data set [1] is recorded as “active”. For the same molecule, in data set [1] (setting [4]), the inhibition at 10 µM came out at 74%.

In turn, `O=[N+]([O-])c1ccc(/C=C/C[n+]2cn(Cc3ccc4ccccc4c3)c3ccccc32)cc1.[Br-]` had a melting point of 189 to 191 °C. For the molecule `COS(C)(=O)=O` [methyl methanesulfonate, reference compound], the mean revertants with E. coli WP2 uvrA strain (2.5 μL/plate, –S9) is given as above 300. On to `COc1cccc2c1ncn2Cc1ccc(-c2ccccc2)cc1` [CKP-27, 1-([1,1′-Biphenyl]-4-ylmethyl)-4-methoxy-1H-benzo[d]imidazole], for which the melting point lay within 150 to 151 °C. Besides, the “effect on viral load in the cell culture supernatant (in words)” value in the data set with SARS-CoV-2 [3] is “reduced the viral load”. Moreover, the “effect on the cytopathic effect” value with SARS-CoV-2 [2] is given as “consistently reduced the cytopathic effect”. Besides, the inhibition at 25 µM in data set [1] (setting [4]) came to 72%. For the molecule `O=C1CC(c2ccc3ccccc3c2)c2ccc3ccccc3c2N1` (stereo not shown) [compound 5979742, 4-(2-naphthyl)-3,4-dihydrobenzo[h]quinolin-2(1H)-one], in data set [1], the “effect on Spike RBD/ACE2” value is “suppressed the interaction”. Consider `Oc1cccc2c1ncn2Cc1ccc(-c2ccccc2)cc1` [CKP-30, 1-([1,1′-Biphenyl]-4-ylmethyl)-1H-benzo[d]imidazol-4-ol], for which the melting point is 258 to 259 °C. In addition, in data set [1], the “activity on Spike RBD/ACE2” value was “none of the 4-hydroxy congeners of 28 and 29, compounds 31 (CKP-26) and 32 (CKP-30) maintained inhibitory activity”.
